Measurements as given in patent US20250179078A1, “INHIBITORS OF NLRP3” (PTC THERAPEUTICS, INC., priority 2022, published 2025).

These molecules were tested against T1, NLRP3 (Homo sapiens, UniProt Q96P20) (assay: IL-1β Secretion Assay (NLRP3-dependent IL1β secretion in THP1 cells)). Settings: PMA-differentiated THP-1 cells; compounds incubated 20 h; 2.5 μM Nigericin 3 h; HTRF IL-1β readout; read-out: IC50 IL-1β Inhibition.
T1 construct: host or cells: THP-1 cells differentiated with PMA
Format: cell-based
In short: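 IL-1β in conditioned media, measured by HTRF after 3 h 2.5 μM nigericin stimulation, gave % inhibition fitted logistically for IC50. Before that, PMA-differentiated (100 ng/mL, 24 h) THP-1 cells were preincubated 20 h with 7 compound concentrations (3-fold serial, DMSO 1:200).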

T1 sequence (Q96P20 whole entry): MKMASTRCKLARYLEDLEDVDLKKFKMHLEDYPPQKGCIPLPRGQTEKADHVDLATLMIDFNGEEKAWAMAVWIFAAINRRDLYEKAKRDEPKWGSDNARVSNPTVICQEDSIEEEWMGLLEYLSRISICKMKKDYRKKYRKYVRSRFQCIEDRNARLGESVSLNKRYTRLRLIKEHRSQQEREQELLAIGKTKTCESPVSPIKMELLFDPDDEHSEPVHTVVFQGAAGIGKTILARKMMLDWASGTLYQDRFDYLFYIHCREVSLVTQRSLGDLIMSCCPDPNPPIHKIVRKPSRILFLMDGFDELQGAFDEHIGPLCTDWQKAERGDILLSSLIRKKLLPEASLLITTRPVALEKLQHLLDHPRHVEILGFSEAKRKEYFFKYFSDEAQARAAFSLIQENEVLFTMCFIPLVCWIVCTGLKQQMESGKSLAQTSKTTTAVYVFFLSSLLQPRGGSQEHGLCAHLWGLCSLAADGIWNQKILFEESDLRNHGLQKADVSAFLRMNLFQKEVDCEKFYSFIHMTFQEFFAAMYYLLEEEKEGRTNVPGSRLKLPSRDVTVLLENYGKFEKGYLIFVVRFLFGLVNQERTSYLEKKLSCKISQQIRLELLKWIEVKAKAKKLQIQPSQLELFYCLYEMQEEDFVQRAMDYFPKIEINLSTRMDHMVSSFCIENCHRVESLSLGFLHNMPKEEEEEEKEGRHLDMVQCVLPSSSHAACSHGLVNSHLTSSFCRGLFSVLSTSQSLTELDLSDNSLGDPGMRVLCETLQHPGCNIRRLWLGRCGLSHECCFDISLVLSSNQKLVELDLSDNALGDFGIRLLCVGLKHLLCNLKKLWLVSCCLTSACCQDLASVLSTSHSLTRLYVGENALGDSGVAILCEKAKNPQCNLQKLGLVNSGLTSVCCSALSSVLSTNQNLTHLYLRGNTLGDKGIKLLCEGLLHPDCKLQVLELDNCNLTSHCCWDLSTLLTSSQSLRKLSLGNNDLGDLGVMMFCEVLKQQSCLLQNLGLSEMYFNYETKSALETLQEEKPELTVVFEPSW

SMILES	IC50 [µM]
COc1ccc(-c2nnc(N[C@@H]3CCC[C@H]3O)n3cncc23)c(OC(F)(F)F)c1 [Compound 221, (1R,2R)-2-({1-[4-methoxy-2-(trifluoromethoxy)phenyl]imidazo[1,5-d][1,2,4]triazin-4-yl}amino)cyclopentan-1-ol]	0.01 to 0.1
COc1ccc(-c2nnc(N[C@@H]3CCC[C@H](O)C3)n3cncc23)c(OC(F)(F)F)c1 [Compound 222, (1S,3R)-3-({1-[4-methoxy-2-(trifluoromethoxy)phenyl]imidazo[1,5-d][1,2,4]triazin-4-yl}amino)cyclohexan-1-ol]	0.001 to 0.01
COc1ccc(-c2nnc(N[C@@H]3CCCC[C@H]3O)n3cncc23)c(OC(F)(F)F)c1 [Compound 223, (1R,2R)-2-({1-[4-methoxy-2-(trifluoromethoxy)phenyl]imidazo[1,5-d][1,2,4]triazin-4-yl}amino)cyclohexan-1-ol]	0.001 to 0.01
COc1ccc(-c2nnc(N[C@@H]3C[C@@H](F)CN(C)C3)n3cncc23)c(OC(F)F)c1 [Compound 224, 1-[2-(difluoromethoxy)-4-methoxyphenyl]-N-[(3R,5R)-5-fluoro-1-methylpiperidin-3-yl]imidazo[1,5-d][1,2,4]triazin-4-amine]	0.001 to 0.01
COc1ccc(-c2nnc(N[C@@H]3CCCN(CCO)C3)n3cncc23)c(OC(F)F)c1 [Compound 225, 2-[(3R)-3-({1-[2-(difluoromethoxy)-4-methoxyphenyl]imidazo[1,5-d][1,2,4]triazin-4-yl}amino)piperidin-1-yl]ethan-1-ol]	0.001 to 0.01
COc1ccc(-c2nnc(N[C@H]3C[C@@](C)(O)C3)n3cncc23)c(OC(F)F)c1 [Compound 226, (1s,3s)-3-({1-[2-(difluoromethoxy)-4-methoxyphenyl]imidazo[1,5-d][1,2,4]triazin-4-yl}amino)-1-methylcyclobutan-1-ol]	0.01 to 0.1
COc1ccc(-c2nnc(Nc3cc[nH]n3)n3cncc23)c(OC(F)F)c1 [Compound 227, 1-[2-(difluoromethoxy)-4-methoxyphenyl]-N-(1H-pyrazol-3-yl)imidazo[1,5-d][1,2,4]triazin-4-amine]	0.01 to 0.1
COc1ccc(-c2nnc(Nc3cc[nH]n3)n3cncc23)c(C(F)(F)F)c1 [Compound 228, 1-[4-methoxy-2-(trifluoromethyl)phenyl]-N-(1H-pyrazol-3-yl)imidazo[1,5-d][1,2,4]triazin-4-amine]	0.01 to 0.1
CCN1CCC[C@@H](Nc2nnc(-c3ccc(C(F)(F)F)cc3OC(F)(F)F)c3cncn23)C1 [Compound 229, N-[(3R)-1-ethylpiperidin-3-yl]-1-[2-(trifluoromethoxy)-4-(trifluoromethyl)phenyl]imidazo[1,5-d][1,2,4]triazin-4-amine]	< 0.001
COc1cccc(C(C)Nc2nnc(-c3ccc(OC)cc3OC(F)(F)F)c3cncn23)c1 (stereo not drawn) [Compound 230, N-[1-(3-methoxyphenyl)ethyl]-1-[4-methoxy-2-(trifluoromethoxy)phenyl]imidazo[1,5-d][1,2,4]triazin-4-amine]	≥ 0.3
COc1ccc(-c2nnc(NC(C)c3ccccc3)n3cncc23)c(OC(F)(F)F)c1 (stereo not drawn) [Compound 231, 1-[4-methoxy-2-(trifluoromethoxy)phenyl]-N-(1-phenylethyl)imidazo[1,5-d][1,2,4]triazin-4-amine]	≥ 0.3
COc1ccc(-c2nnc(NC(C)c3cccnc3)n3cncc23)c(OC(F)(F)F)c1 (stereo not drawn) [Compound 232, 1-[4-methoxy-2-(trifluoromethoxy)phenyl]-N-[1-(pyridin-3-yl)ethyl]imidazo[1,5-d][1,2,4]triazin-4-amine]	0.1 to 0.3
COc1ccc(-c2nnc(NCc3cccc(O)c3)n3cncc23)c(OC(F)(F)F)c1 [Compound 233, 3-[{{1-[4-methoxy-2-(trifluoromethoxy)phenyl]imidazo[1,5-d][1,2,4]triazin-4-yl}amino)methyl]phenol]	0.001 to 0.01
COc1ccc(-c2nnc(NCc3cc[nH]n3)n3cncc23)c(OC(F)(F)F)c1 [Compound 234, 1-[4-methoxy-2-(trifluoromethoxy)phenyl]-N-[(1H-pyrazol-3-yl)methyl]imidazo[1,5-d][1,2,4]triazin-4-amine]	0.01 to 0.1
COc1ccc(-c2nnc(NC3CCNC3=O)n3cncc23)c(C(F)(F)F)c1 (stereo not drawn) [Compound 235, 3-({1-[4-methoxy-2-(trifluoromethyl)phenyl]imidazo[1,5-d][1,2,4]triazin-4-yl}amino)pyrrolidin-2-one]	0.001 to 0.01
COc1ccc(-c2nnc(N[C@H]3C[C@@](C)(O)C3)n3cncc23)c(CC(F)(F)F)c1 [Compound 236, (1s,3s)-3-({1-[4-methoxy-2-(2,2,2-trifluoroethyl)phenyl]imidazo[1,5-d][1,2,4]triazin-4-yl}amino)-1-methylcyclobutan-1-ol]	0.001 to 0.01
COc1ccc(-c2nnc(N[C@@H]3CCCC[C@H]3O)n3cncc23)c(CC(F)(F)F)c1 [Compound 237, (1R,2R)-2-({1-[4-methoxy-2-(2,2,2-trifluoroethyl)phenyl]imidazo[1,5-d][1,2,4]triazin-4-yl}amino)cyclohexan-1-ol]	0.001 to 0.01

SMILES	IC50 [µM]
COc1ccc(-c2nnc(NC3CCNC3=O)n3cncc23)c(CC(F)(F)F)c1 (stereo not drawn) [Compound 238, 3-({1-[4-methoxy-2-(2,2,2-trifluoroethyl)phenyl]imidazo[1,5-d][1,2,4]triazin-4-yl}amino)pyrrolidin-2-one]	0.001 to 0.01
OCCN1CCC[C@@H](Nc2nnc(-c3ccc(C(F)(F)F)cc3OC(F)(F)F)c3cncn23)C1 [Compound 239, 2-[(3R)-3-({1-[2-(trifluoromethoxy)-4-(trifluoromethyl)phenyl]imidazo[1,5-d][1,2,4]triazin-4-yl}amino)piperidin-1-yl]ethan-1-ol]	< 0.001
O[C@H]1CCC[C@@H](Nc2nnc(-c3ccc(C(F)(F)F)cc3OC(F)(F)F)c3cncn23)C1 [Compound 240, (1S,3R)-3-({1-[2-(trifluoromethoxy)-4-(trifluoromethyl)phenyl]imidazo[1,5-d][1,2,4]triazin-4-yl}amino)cyclohexan-1-ol]	< 0.001
C[C@]1(O)C[C@@H](Nc2nnc(-c3ccc(C(F)(F)F)cc3OC(F)(F)F)c3cncn23)C1 [Compound 241, (1s,3s)-1-methyl-3-({1-[2-(trifluoromethoxy)-4-(trifluoromethyl)phenyl]imidazo[1,5-d][1,2,4]triazin-4-yl}amino)cyclobutan-1-ol]	< 0.001
O[C@@H]1CCCC[C@H]1Nc1nnc(-c2ccc(C(F)(F)F)cc2OC(F)(F)F)c2cncn12 [Compound 242, (1R,2R)-2-({1-[2-(trifluoromethoxy)-4-(trifluoromethyl)phenyl]imidazo[1,5-d][1,2,4]triazin-4-yl}amino)cyclohexan-1-ol]	< 0.001
O[C@@H]1CCCC[C@H]1Nc1nnc(-c2ccc(C(F)(F)F)cc2C(F)(F)F)c2cncn12 [Compound 243, (1R,2R)-2-({1-[2,4-bis(trifluoromethyl)phenyl]imidazo[1,5-d][1,2,4]triazin-4-yl}amino)cyclohexan-1-ol]	< 0.001
C[C@]1(O)C[C@@H](Nc2nnc(-c3ccc(OC(F)F)cc3OC(F)(F)F)c3cncn23)C1 [Compound 244, (1s,3s)-3-({1-[4-(difluoromethoxy)-2-(trifluoromethoxy)phenyl]imidazo[1,5-d][1,2,4]triazin-4-yl}amino)-1-methylcyclobutan-1-ol]	< 0.001
O[C@H]1CCC[C@@H](Nc2nnc(-c3ccc(OC(F)F)cc3OC(F)(F)F)c3cncn23)C1 [Compound 245, (1S,3R)-3-({1-[4-(difluoromethoxy)-2-(trifluoromethoxy)phenyl]imidazo[1,5-d][1,2,4]triazin-4-yl}amino)cyclohexan-1-ol]	0.001 to 0.01
O[C@@H]1CCCC[C@H]1Nc1nnc(-c2ccc(OC(F)F)cc2OC(F)(F)F)c2cncn12 [Compound 246, (1R,2R)-2-({1-[4-(difluoromethoxy)-2-(trifluoromethoxy)phenyl]imidazo[1,5-d][1,2,4]triazin-4-yl}amino)cyclohexan-1-ol]	< 0.001
COc1ccc(-c2nnc(N[C@@H]3CCOC[C@H]3O)n3cncc23)c(CC(F)(F)F)c1 [Compound 249, (3S,4R)-4-({1-[4-methoxy-2-(2,2,2-trifluoroethyl)phenyl]imidazo[1,5-d][1,2,4]triazin-4-yl}amino)oxan-3-ol]	0.001 to 0.01
COc1ccc(-c2nnc(N[C@@H]3CCCN(C)C3)n3cncc23)c(CC(F)(F)F)c1 [Compound 250, 1-[4-methoxy-2-(2,2,2-trifluoroethyl)phenyl]-N-[(3R)-1-methylpiperidin-3-yl]imidazo[1,5-d][1,2,4]triazin-4-amine]	< 0.001
COc1ccc(-c2nnc(NC(C)c3cccc(O)c3)n3cncc23)c(C(F)(F)F)c1 (stereo not drawn) [Compound 251, 3-[1-({1-[4-methoxy-2-(trifluoromethyl)phenyl]imidazo[1,5-d][1,2,4]triazin-4-yl}amino)ethyl]phenol]	< 0.001
CN1C[C@H](F)C[C@@H](Nc2nnc(-c3ccc(C(F)(F)F)cc3C(F)(F)F)c3cncn23)C1 [Compound 252, 1-[2,4-bis(trifluoromethyl)phenyl]-N-[(3R,5R)-5-fluoro-1-methylpiperidin-3-yl]imidazo[1,5-d][1,2,4]triazin-4-amine]	0.001 to 0.01
OCCN1CCC[C@@H](Nc2nnc(-c3ccc(C(F)(F)F)cc3C(F)(F)F)c3cncn23)C1 [Compound 253, 2-[(3R)-3-({1-[2,4-bis(trifluoromethyl)phenyl]imidazo[1,5-d][1,2,4]triazin-4-yl}amino)piperidin-1-yl]ethan-1-ol]	0.001 to 0.01
FC(F)(F)c1ccc(-c2nnc(N[C@@H]3CCCOC3)n3cncc23)c(C(F)(F)F)c1 [Compound 254, 1-[2,4-bis(trifluoromethyl)phenyl]-N-[(3R)-oxan-3-yl]imidazo[1,5-d][1,2,4]triazin-4-amine]	0.01 to 0.1
OC[C@H]1C[C@@H](Nc2nnc(-c3ccc(C(F)(F)F)cc3OC(F)(F)F)c3cncn23)C1 [Compound 255, [(1s,3s)-3-({1-[2-(trifluoromethoxy)-4-(trifluoromethyl)phenyl]imidazo[1,5-d][1,2,4]triazin-4-yl}amino)cyclobutyl]methanol]	0.001 to 0.01
